# Test results: US20080153896A1, “Polymorphic Forms of an HMG-CoA Reductase Inhibitor and Uses Thereof” (priority 2006, published 2008)
# Test: Stability (integrity) testing of amorphous and polymorphic form under storage conditions, RP-HPLC
# Assay type: physicochemical
# Parameters: key to Impurity RRT 0.738 / Impurity RRT 0.949 / Impurity RRT 1.050 / Impurity RRT 1.550 / Impurity RRT 0.136 / Impurity RRT 0.720 / Impurity RRT 0.706 / Impurity RRT 1.18 / Impurity RRT 1.826: % of total UV absorption (HPLC peak area); Impurity RRT 1.104 / Impurity RRT 1.698: unit not given beside the values
# Conditions: Batch 3 PP00205
# Experimental: The integrity of the different forms of the (3R, 5R)-7-[2-(4-fluorophenyl)-5-isopropyl-3-phenyl-4-[(4-hydroxymethylphenylamino)carbonyl]-pyrrol-1-yl]-3,5-dihydroxy-heptanoic acid, hemi calcium salt, was tested under different atmospheric conditions to determine the stability of the amorphous and polymorphic form of the drug in various storage environments. Reversed Phase-HPLC (RP-HPLC) was used to separate (3R, 5R)-7-[2-(4-fluorophenyl)-5-isopropyl-3-phenyl-4-[(4-hydroxymethylphenylamino)carbonyl]-pyrrol-1-yl]-3,5-dihydroxy-heptanoic acid, hemi calcium salt, from smaller molecules representing breakdown products as well as oxidized drug. The relative amount of the drug was reported as a percent of total absorption by UV. The total peak area of all UV absorption impurities was used to define total impurity of the drug. Impurities are defined by their relative retention time (RRT) compared to native drug. Samples were injected onto a C18 column using standard temperature, gradient and run-time conditions.
# The results of this integrity testing for the amorphous form of (3R, 5R)-7-[2-(4-fluorophenyl)-5-isopropyl-3-phenyl-4-[(4-hydroxymethylphenylamino)carbonyl]-pyrrol-1-yl]-3,5-dihydroxy-heptanoic acid, hemi calcium salt, is shown in Table 5.
# Three separate batches of polymorphic Form I of (3R, 5R)-7-[2-(4-fluorophenyl)-5-isopropyl-3-phenyl-4-[(4-hydroxymethylphenylamino)carbonyl]-pyrrol-1-yl]-3,5-dihydroxy-heptanoic acid, hemi calcium salt, were prepared and tested under the same atmospheric conditions described for the amorphous form.
smiles,measurement,setting,value
"CC(C)c1c(C(=O)Nc2ccc(CO)cc2)c(-c2ccccc2)c(-c2ccc(F)cc2)n1CC[C@@H](O)C[C@@H](O)CC(=O)[O-].CC(C)c1c(C(=O)Nc2ccc(CO)cc2)c(-c2ccccc2)c(-c2ccc(F)cc2)n1CC[C@@H](O)C[C@@H](O)CC(=O)[O-].[Ca+2] [Form I, (3R,5)-7-[2-(4-fluorophenyl)-5-isopropyl-3-phenyl-4-[(4-hydroxymethylphenylamino)carbonyl]-pyrrol-1-yl]-3,5-dihydroxy-heptanoic acid, hemi calcium salt]",Impurity RRT 1.045,25° C./60% RH 12M,0.344
same,Impurity RRT 1.095,25° C./60% RH 12M,0.165
same,Impurity RRT 1.449,25° C./60% RH 12M,0.195
same,Impurity RRT 1.596,25° C./60% RH 12M,0.086
same,Impurity RRT 1.640,25° C./60% RH 12M,0.052
same,Impurity RRT 1.698,25° C./60% RH 12M,0.061
same,Total Impurity,25° C./60% RH 12M,1.506
same,Water,25° C./60% RH 12M,5.57 % W/W
same,Assay,30° C./65% RH 1M,98.21 % W/W
same,Description,30° C./65% RH 1M,White
same,Highest Impurity,30° C./65% RH 1M,0.449
same,Impurity RRT 0.935,30° C./65% RH 1M,0.449
same,Impurity RRT 1.045,30° C./65% RH 1M,0.385
same,Impurity RRT 1.095,30° C./65% RH 1M,0.162
same,Impurity RRT 1.44,30° C./65% RH 1M,0.234
same,Impurity RRT 1.590,30° C./65% RH 1M,0.102
same,Impurity RRT 1.640,30° C./65% RH 1M,0.071
same,Impurity RRT 1.698,30° C./65% RH 1M,0.072
same,Total Impurity,30° C./65% RH 1M,1.495
same,Water,30° C./65% RH 1M,4.47 % W/W
same,Assay,30° C./65% RH 2M,98.27 % W/W
same,Description,30° C./65% RH 2M,White
same,Highest Impurity,30° C./65% RH 2M,0.416
same,Impurity RRT 0.935,30° C./65% RH 2M,0.416
same,Impurity RRT 1.045,30° C./65% RH 2M,0.362
same,Impurity RRT 1.095,30° C./65% RH 2M,0.163
same,Impurity RRT 1.18,30° C./65% RH 2M,0.048
same,Impurity RRT 1.44,30° C./65% RH 2M,0.216
same,Impurity RRT 1.590,30° C./65% RH 2M,0.100
same,Impurity RRT 1.640,30° C./65% RH 2M,0.063
same,Impurity RRT 1.698,30° C./65% RH 2M,0.062
same,Total Impurity,30° C./65% RH 2M,1.43
same,Water,30° C./65% RH 2M,4.59 % W/W
same,Assay,30° C./65% RH 3M,98.21 % W/W
same,Description,30° C./65% RH 3M,White
same,Highest Impurity,30° C./65% RH 3M,0.432
same,Impurity RRT 0.935,30° C./65% RH 3M,0.432
same,Impurity RRT 1.045,30° C./65% RH 3M,0.37
same,Impurity RRT 1.095,30° C./65% RH 3M,0.168
same,Impurity RRT 1.44,30° C./65% RH 3M,0.228
same,Impurity RRT 1.590,30° C./65% RH 3M,0.096
same,Impurity RRT 1.640,30° C./65% RH 3M,0.057
same,Impurity RRT 1.698,30° C./65% RH 3M,0.064
same,Total Impurity,30° C./65% RH 3M,1.43
same,Water,30° C./65% RH 3M,4.82 % W/W
same,Assay,30° C./65% RH 6M,98.06 % W/W
same,Description,30° C./65% RH 6M,White
same,Highest Impurity,30° C./65% RH 6M,0.418
same,Impurity RRT 0.935,30° C./65% RH 6M,0.418
same,Impurity RRT 1.045,30° C./65% RH 6M,0.352
same,Impurity RRT 1.095,30° C./65% RH 6M,0.134
same,Impurity RRT 1.449,30° C./65% RH 6M,0.224
same,Impurity RRT 1.596,30° C./65% RH 6M,0.095
same,Impurity RRT 1.640,30° C./65% RH 6M,0.077
same,Impurity RRT 1.698,30° C./65% RH 6M,0.052
same,Total Impurity,30° C./65% RH 6M,1.352
same,Water,30° C./65% RH 6M,4.87 % W/W
same,Assay,30° C./65% RH 9M,97.89 % W/W
same,Description,30° C./65% RH 9M,White
same,Highest Impurity,30° C./65% RH 9M,0.407
same,Impurity RRT 0.935,30° C./65% RH 9M,0.407
same,Impurity RRT 1.045,30° C./65% RH 9M,0.340
same,Impurity RRT 1.095,30° C./65% RH 9M,0.150
same,Impurity RRT 1.449,30° C./65% RH 9M,0.216
same,Impurity RRT 1.596,30° C./65% RH 9M,0.103
same,Impurity RRT 1.640,30° C./65% RH 9M,0.064
same,Impurity RRT 1.698,30° C./65% RH 9M,0.053
same,Total Impurity,30° C./65% RH 9M,1.333
same,Water,30° C./65% RH 9M,4.91 % W/W
same,Assay,30° C./65% RH 12M,97.80 % W/W
same,Description,30° C./65% RH 12M,White
same,Highest Impurity,30° C./65% RH 12M,0.424
